According to US7071206B2, “Agents for treating neurodegenerative disorders” (Medivation, Inc., priority 1995, dated 2006):

How the values were obtained:
NMDA receptor [1] = assay: Anti-NMDA activity: prevention of convulsions and death caused by NMDA injected into the lateral ventricle of the brain; type: in vivo; conditions: mice, i.p. 40 minutes before NMDA 0.1 μg into the lateral ventricle, probit analysis
Procedure: The experiment was conducted in white non-inbred male mice of 20–24 g of weight. A solution of the test agent in 0.2 ml of 5% aqueous dimethylsulfoxide was injected intraperitoneally 40 minutes before the injection of NMDA into the lateral vehicle of the brain. For the mice that had been prepared beforehand for the experiment a skin flap on the head of each mouse was removed under ether anestesia and a hole was bored in the skull by a fine drill. NMDA (0.1 μg) in a volume of 1.4 μl was injected with a microsyringe. The microsyringe needle was immersed to a depth of 2.5 mm. After the operation, the wound was treated with a 2% novocaine solution. […] The accuracy of NMDA injection was monitored by injection of methylene blue. Two to 4 hours after the operation, the mice were used for a pharmacological experiment.
The animals inoculated with a saline solution were used as control.
Each dose of the agent was tested in a croup of 6–8 animals. The ED50 value (the dose of the agent preventing the development of convulsions and the death of 50% of the animals) was determined by a probit-analysis method (Litchfild J. T., Wicoxon F. J.—Pharmacol. Exp. Therap., 1949, v. 96, p. 99–114).

NMDA receptor [2] = conditions: cited from earlier work

## Cl.Nc1c2c(nc3ccccc13)CCCC2 [Tacrine, 9-amino-1,2,3,4-tetrahydroacridine hydrochloride, reference compound]
NMDA receptor [1]
  ED50 (dose preventing the development of convulsions and the death of 50% of the animals): not active

## Cc1ccc(CCn2c3c(c4ccccc42)CN(C)CC3)cn1 [No. 9, 2-methyl-5-[2-(6-methyl-3-pyridyl)ethyl]-2,3,4,5-tetrahydro-1H-pyrido[4,3-b]indole]
NMDA receptor [1]
  ED50 (dose preventing the development of convulsions and the death of 50% of the animals): 22 ± 4 mg/kg

## NC(CCCP(=O)(O)O)C(=O)O (stereo not drawn) [AP-5, 2-amino-5-phosphonovaleric acid]
NMDA receptor [2]; in the doses that produce the anti-NMDA effect
  side neurotoxic effect (disturbance of coordination of movement, sedative effect): side neurotoxic effect
NMDA receptor [2]; literature value
  ED50, anti-NMDA effect: 190 mg/kg
NMDA receptor [1]
  ED50 (dose preventing the development of convulsions and the death of 50% of the animals): 190 ± 20 mg/kg

## CN1CCc2[nH]c3ccccc3c2C1 [No. 1, 2-methyl-2,3,4,5-tetrahydro-1H-pyrido[4,3-b]indole]
NMDA receptor [1]
  ED50 (dose preventing the development of convulsions and the death of 50% of the animals): 30 ± 4 mg/kg

## Cc1ccc2c(c1)c1c(n2Cc2ccccc2)CCN(C)C1 [No. 8, 2,8-dimethyl-5-benzyl-2,3,4,5-tetrahydro-1H-pyrido[4,3-b]indole]
NMDA receptor [1]
  ED50 (dose preventing the development of convulsions and the death of 50% of the animals): 45 ± 5 mg/kg

## c1ccc(CN2CCc3[nH]c4ccccc4c3C2)cc1 [No. 7, 2-benzyl-2,3,4,5-tetrahydro-1H-pyrido[4,3-b]indole]
NMDA receptor [1]
  ED50 (dose preventing the development of convulsions and the death of 50% of the animals): 43 ± 5 mg/kg

## CN1CCc2[nH]c3ccc(Br)cc3c2C1 [No. 5, 2-methyl-8-bromo-2,3,4,5-tetrahydro-1H-pyrido[4,3-b]indole]
NMDA receptor [1]
  ED50 (dose preventing the development of convulsions and the death of 50% of the animals): 29 ± 5 mg/kg

## CCN1CCc2[nH]c3ccccc3c2C1 [No. 6, 2-ethyl-2,3,4,5-tetrahydro-1H-pyrido[4,3-b]indole]
NMDA receptor [1]
  ED50 (dose preventing the development of convulsions and the death of 50% of the animals): 45 ± 6 mg/kg

## Cc1ccc2[nH]c3c(c2c1)CN(C)CC3 [No. 2, 2,8-dimethyl-2,3,4,5-tetrahydro-1H-pyrido[4,3-b]indole]
NMDA receptor [1]; listed as 2
  ED50 (dose preventing the development of convulsions and the death of 50% of the animals): 16 ± 4 mg/kg

## Cc1ccc2[nH]c3c(c2c1)CN(C)CC3 [No. 3, 2,8-dimethyl-2,3,4,5-tetrahydro-1H-pyrido[4,3-b]indole]
NMDA receptor [1]; listed as 3
  ED50 (dose preventing the development of convulsions and the death of 50% of the animals): ~40 mg/kg
